Residues, ends and D or L forms follow the SMILES beside them. No end group written: not given here. *: point of attachment. FITC = O=C1OC2(c3ccc(O)cc3Oc3cc(O)ccc32)c2ccc(NC(=S)*)cc21
Legend:
[1] = system: HER cells; test: Membrane permeabilization, propidium iodide uptake after F-POD; format: cell-based, human; details: FACS, F-POD 0.2 to 2.0 μM (average), Triton-X100 1%
Description: HER cells were seeded on Lab Tek-II chamber slides and grown to about 70% confluence. Cells were washed twice with PBS and incubated with […] L-POD for 0, 5, 15, 30, 45, and 60 minutes or 1 nmol Lissamine only for 60 minutes. Cells were fixed for 15 minutes in formalin at room temperature. Cells for live imaging were grown on 24 well plates and incubated with […] of L-POD. Following incubation, cells were washed three times with PBS, incubated in phenol red-free DMEM supplemented with 2% FBS. Cells were visualized by light and fluorescent microscopy using either an Olympus IX51 (live cells) or an Olympus BX51 (fixed cells) with DIC, RFP, and GFP filters. Images were obtained using a Retiga 2000R FAST camera and QCapture Pro 5.0 (QImaging, BC, Canada). To measure L-POD uptake in the presence of trypsin, 0.2×10^6 HER cells were incubated with 2.0 nmole L-POD in media for 15 minutes at 37° C. followed by incubation in 2.5 mg/ml trypsin for 12 minutes at 37° C. For analysis of uptake at 4° C., cells were cooled to 4° C. for 45 minutes prior to the addition of peptide and cold (4° C.) reagents were used for peptide administration. […] The number of PI-positive cells was analyzed by FACS. […] Examples were performed in triplicate and 10,000 events per sample were counted. Results were analyzed using CellQuest Pro software (Becton Dickinson). […]

[2] = system: E. coli; test: Microbicidal activity, colony count after plating; format: cell-based; details: 2 hours at 37° C., plating on LB agar
Description: (§1) Lissamine conjugated POD (L-POD) and either heparan sulfate or chondroitan sulfate were incubated together at each of molar ratios of 1:3.33, 1:6.67, and 1:8 in water for 30 minutes at room temperature. The complex was diluted in DMEM+2% FBS and added to 0.2×]06 HER cells for 5 minutes at 37° C. Following incubation, cells were trypsinized and suspended in PBS for FACS analysis as described above. To measure microbicidal activity of C-POD, XL-1 Blue cells (Stratagene, La Jolla, Calif.) were grown to mid logarithmic phase (OD600=0.600) and washed twice in a solution of 10 mM Tris, pH 7.4 and 5 mM Glucose. The cells were resuspended in 10 mL of the same solution and […] of the suspension was incubated with C-POD in a final volume of 50 μL. The peptide/bacteria cell solution was rocked for 2 hours at 37° C. The peptide-treated bacteria was diluted 1:4500 with LB broth, plated on agar, and grown overnight at 37° C. The following day, the bacterial colonies on each plate were counted to quantify peptide-related reduction in growth.
Since endophthalmitis, an infection within the eye, is regularly a complicating factor in drug delivery to ocular tissues [Ho J et al. 2007 Int Opthalmol Clin 47: 199-208], C-POD was examined for potential microbicidal activities. E. coli cells grown to mid-log phase were incubated with either H20 only or C-POD suspended in H20 at concentrations ranging from 0.03 μM to 60 μM, and cell number was determined by plating samples on LB agar. […] Greater concentrations of C-POD completely eliminated bacterial growth.

[3] = system: Human embryonic retinal (HER) 911 cells; test: L-POD uptake by HER cells (microscopy, lissamine-positive cells by FACS); format: cell-based
Description: HER cells were seeded on Lab Tek-II chamber slides and grown to about 70% confluence. Cells were washed twice with PBS and incubated with […] L-POD for 0, 5, 15, 30, 45, and 60 minutes or 1 nmol Lissamine only for 60 minutes. Cells were fixed for 15 minutes in formalin at room temperature. Cells for live imaging were grown on 24 well plates and incubated with […] of L-POD. Following incubation, cells were washed three times with PBS, incubated in phenol red-free DMEM supplemented with 2% FBS. Cells were visualized by light and fluorescent microscopy using either an Olympus IX51 (live cells) or an Olympus BX51 (fixed cells) with DIC, RFP, and GFP filters. Images were obtained using a Retiga 2000R FAST camera and QCapture Pro 5.0 (QImaging, BC, Canada). To measure L-POD uptake in the presence of trypsin, 0.2×10^6 HER cells were incubated with 2.0 nmole L-POD in media for 15 minutes at 37° C. followed by incubation in 2.5 mg/ml trypsin for 12 minutes at 37° C. For analysis of uptake at 4° C., cells were cooled to 4° C. for 45 minutes prior to the addition of peptide and cold (4° C.) reagents were used for peptide administration. Following incubation with peptide, cells were washed twice with PBS and spun and resuspended in PBS for FACS analysis. For measurement of membrane permeabilization, HER cells were incubated with 2.0 nmole FITC-HBP for 30 minutes at 37° C., washed twice, isolated, and suspended in PBS with 1 μM PI. The number of PI-positive cells was analyzed by FACS. FACS analysis was performed using a FACSCalibur (Becton Dickinson). Examples were performed in triplicate and 10,000 events per sample were counted. Results were analyzed using CellQuest Pro software (Becton Dickinson).
Human embryonic retinal (HER) 911 cells [Fallaux F J et al. 1996 Hum. Gene Ther. 7: 215-222] incubated with […] (8 μM) lissamine-conjugated POD (L-POD), followed by formalin fixation, became […] to 558 nm excitation (emission measured at 583 nm) within 1 min and appeared normal in bright field (FIG. 1 panel A). Within 5 min, L-POD was seen within the cytoplasm with both a diffuse cytoplasmic and slightly punctate pattern (Figure panel A).
To determine whether L-POD was internalized or was non-specifically associated with the plasma membrane, HER cells incubated with 2 nmoles (8 μM) L-POD for 15 min were treated with trypsin at 37° C. prior to counting of lissamine-positive cells by FACS. […] Sensitivity of POD peptide to trypsin-mediated digestion was confirmed by incubation of […] of C-POD with trypsin prior to loading on an acrylamide gel (inset FIG. 1 panel C). Whereas 92.23±0.65% of HER cells were lissamine-positive when incubated with L-POD at 37° C., only 48.74±2.32% of cells were lissamine-positive when incubated with L-POD at 4° C. (FIG. 1 panel D).

[4] = system: HER cells; test: Inhibition of L-POD uptake by proteoglycans; format: cell-based, human
Description: as §1
To determine whether L-POD uses cell surface proteoglycans for binding and cell entry, L-POD was pre incubated with different amounts of either of the proteoglycans chondroitin sulfate or heparan sulfate, prior to addition to HER cells. Based on data from preliminary studies, ratios of L-POD:proteoglycan of 1:3.33, 1:6.67 and 1:8 were selected.
In contrast, the uptake of a TRITC-conjugated peptide containing an integrin-binding RGD motif was not affected by pre-incubation with either proteoglycan (FIG. 3 panel A).

[5] = system: neural retina; test: Subretinal / intravitreal delivery of L-POD and QDPOD to retina in vivo; design: species or system C57BL/6J mice; details: 2 hours
Description: The use of animals in this work was in accordance with the ARVO Statement for the Use of Animals in Ophthalmic and Vision Research. C57BL/6J mice were purchased from Jackson Laboratories, bred and maintained in a 12-hour light-dark cycle and cared for in accordance with federal, state and local regulations. For each Example herein at least 4 mice (8 eyes) were investigated, yielding roughly similar results. Mice were anesthetized by […] injection of xylazine (10 mg/ml)/ketamine (1 mg/ml). Subretinal or intravitreal injections were performed with a 32 G needle attached to a 5 μl glass syringe (Hamilton) by a trans scleral trans choroidal approach to deliver 0.25 nmole of L-POD per eye. For topical delivery to cornea, male C57BL6/6J mice at 6 weeks of age were anesthetized by intraperitoneal injection of ketamine/xylazine and 10 nmoles of either L-POD or lissamine only were dropped on the cornea and incubated for 45 minutes or 24 hours. Upon completion of the treatment, the animal was sacrificed by CO2 inhalation followed by cervical dislocation and the eyes harvested and washed three times in PBS. Fluorescent and bright field images were taken of each eye using a Nikon C-FMC microscope prior to fixation. Eyes were fixed overnight at 4° C. in 4% paraformaldehyde and embedded in Optimal Cutting Temperature Compound and 14 μm sections were collected using a Microm 550 cryostat. […]

[6] = system: cornea, sclera, optic nerve; test: Topical application of L-POD to whole mouse eye in vivo; design: species or system C57BL6/6J mice; details: for staining of external ocular tissues: topical, 10 nmol, 45 min
Description: The use of animals in this work was in accordance with the ARVO Statement for the Use of Animals in Ophthalmic and Vision Research. C57BL/6J mice were purchased from Jackson Laboratories, bred and maintained in a 12-hour light-dark cycle and cared for in accordance with federal, state and local regulations. For each Example herein at least 4 mice (8 eyes) were investigated, yielding roughly similar results. Mice were anesthetized by […] injection of xylazine (10 mg/ml)/ketamine (1 mg/ml). Subretinal or intravitreal injections were performed with a 32 G needle attached to a 5 μl glass syringe (Hamilton) by a trans scleral trans choroidal approach to deliver 0.25 nmole of L-POD per eye. For topical delivery to cornea, male C57BL6/6J mice at 6 weeks of age were anesthetized by intraperitoneal injection of ketamine/xylazine and 10 nmoles of either L-POD or lissamine only were dropped on the cornea and incubated for 45 minutes or 24 hours. Upon completion of the treatment, the animal was sacrificed by CO2 inhalation followed by cervical dislocation and the eyes harvested and washed three times in PBS. Fluorescent and bright field images were taken of each eye using a Nikon C-FMC microscope prior to fixation. Eyes were fixed overnight at 4° C. in 4% paraformaldehyde and embedded in Optimal Cutting Temperature Compound and 14 μm sections were collected using a Microm 550 cryostat.
To assess penetration of the cornea and sclera with L-POD, whole mouse eye was incubated in vivo with 10 nmol L-POD for 45 min followed by harvesting of ocular tissues.

Question: For C[C@H](NC(=O)[C@H](CCCCN)NC(=O)[C@H](C)NC(=O)[C@H](C)NC(=O)[C@H](CCCCN)NC(=O)[C@H](CCCCN)NC(=O)[C@H](CCCNC(=N)N)NC(=O)[C@H](C)NC(=O)[C@H](C)NC(=O)[C@H](CCCCN)NC(=O)[C@H](C)NC(=O)[C@H](C)NC(=O)[C@H](CCCCN)NC(=O)[C@H](CCCCN)NC(=O)[C@H](CCCNC(=N)N)NC(=O)[C@H](C)NC(=O)[C@H](C)NC(=O)[C@H](CCCCN)NC(=O)[C@H](C)NC(=O)[C@H](C)NC(=O)[C@H](CCCCN)NC(=O)[C@H](CCCCN)NC(=O)[C@H](CCCNC(=N)N)NC(=O)[C@H](C)NC(=O)[C@H](C)NC(=O)[C@H](CCCCN)NC(=O)[C@H](C)NC(=O)[C@H](C)NC(=O)[C@H](CCCCN)NC(=O)[C@H](CCCCN)NC(=O)[C@H](CCCNC(=N)N)NC(=O)[C@H](C)NC(=O)CNC(=O)CNC(=O)CNC(=S)Nc1ccc2c(c1)C(=O)OC21c2ccc(O)cc2Oc2cc(O)ccc21)C(=O)O [F-POD] ({FITC}-GGGARKKAAKAARKKAAKAARKKAAKAARKKAAKA-OH), which PI-positive cells [1] is on record?
Answer: Its PI-positive cells is 3.98±0.70%.

Question: For GGG(ARKKAAKA)4 [POD], which “concentration giving significant inhibition of bacterial growth” value [2] is on record?
Answer: Its value is 0.3 µM.

Question: For “L-POD: N terminal lissamine conjugated GGG(ARKKAAKA)4 (SEQ ID NO: 1) (lissamine-GGGARKKAAKAARKKAAKAARKKAAKAARKKAAKA)”, which lissamine-positive cells ([3]; 2 nmoles (8 μM) L-POD 15 min, with incubation with trypsin) is on record?
Answer: The lissamine-positive cells was 90.10±1.89%.

Question: What about the lissamine-positive cells ([3]; 2 nmoles (8 μM) L-POD 15 min, without incubation with trypsin) of the same compound?
Answer: The lissamine-positive cells was 92.23±0.65%.

Question: What about the “time until L-POD was seen within the cytoplasm” value ([3]; 2 nmoles (8 μM) L-POD, formalin fixation) of the same compound?
Answer: Its value is ≤ 5 min.

Question: What about the “uptake of L-POD in the presence of inhibitors of endocytosis” value ([3]; chlorpromazine, genistein, filipin) of the same compound?
Answer: Its value is “no significant reduction”.

Question: What about the lissamine-positive cells ([3]; incubated with L-POD at 4° C.) of the same compound?
Answer: The lissamine-positive cells was 48.74±2.32%.

Question: What about the lissamine-positive cells ([3]; incubated with L-POD at 37° C.) of the same compound?
Answer: Its lissamine-positive cells is 92.23±0.65%.

Question: And the “uptake of L-POD (lissamine-positive cells)” value ([4]; chondroitin sulfate, 1:6.67)?
Answer: Its value is 59.43±1.55%.

Question: And the “uptake of L-POD (lissamine-positive cells)” value ([4]; chondroitin sulfate, 1:8)?
Answer: Its value is 34.38±3.13%.

Question: What about the “uptake of L-POD (lissamine-positive cells)” value ([4]; chondroitin sulfate, L-POD:proteoglycan 1:3.33) of the same compound?
Answer: Its value is 71.24±1.77%.

Question: And the “uptake of L-POD (lissamine-positive cells)” value ([4]; heparan sulfate, 1:3.33)?
Answer: The value was 78.60±0.35%.

Question: What about the “uptake of L-POD (lissamine-positive cells)” value ([4]; heparan sulfate, 1:6.67) of the same compound?
Answer: Its value is 57.78±2.83%.

Question: And the “uptake of L-POD (lissamine-positive cells)” value ([4]; heparan sulfate, 1:8)?
Answer: The value was 44.37±2.17%.

Question: And the lissamine-positive cells ([4]; without pre incubation with any proteoglycan)?
Answer: Its lissamine-positive cells is 90.07±0.64%.

Question: And the “transduction of neural retina” value ([5]; intravitreal)?
Answer: Its value is “approximately 85%”.

Question: What about the “transduction of neural retina” value ([5]; subretinal) of the same compound?
Answer: The value was “approximately 40%”.

Question: And the “time to reach the optic nerve” value ([6]; administered topically)?
Answer: The value was ≤ 45 min.

Question: And the “staining of external ocular tissues” value [6]?
Answer: The value was “bound strongly to the cornea, sclera and unexpectedly, also the optic nerve”.

Question: For Triton-X100 [reference compound], which PI-positive cells [1] is on record?
Answer: Its PI-positive cells is 91.44±9.66%.

Question: lissamine [reference compound] was tested. Which “uptake by HER cells (microscopy)” value ([3]; lissamine only, fixed cells) did it give?
Answer: Its value is “no evidence of uptake”.

Question: What about the “staining of external ocular tissues” value [6] of the same compound?
Answer: Its value is “weakly stained the cornea and sclera and did not stain the optic nerve”.
